Laboratory results reported in PubChem BioAssay AID328 (DTP/NCI, 2004).
“And” between values parts separate entries of the source, which are not always exact repeats. Identical values can stand only once. Toxic doses and inconclusive results are not listed.

Tested on: BDF1 mice, P388 leukemia ip, median survival T/C
Experiment: NCI In Vivo Anticancer Drug Screen. Data for tumor model P388 Leukemia (intraperitoneal) in B6D2F1 (BDF1) mice
Settings: endpoint: median survival time, higher = longer survival
Outline: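 T/C = treated-group survival ÷ vehicle-control survival; tumour transplanted into mice before dosing.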

[1] = dose: 3.12 mg/kg/injection, schedule: Q01DX009 (ip), vehicle: saline
[2] = dose: 6.25 mg/kg/injection, schedule: Q01DX009 (ip), vehicle: saline
[3] = dose: 12.5 mg/kg/injection, schedule: Q01DX009 (ip), vehicle: saline
[4] = dose: 25.0 mg/kg/injection, schedule: Q01DX009 (ip), vehicle: saline
[5] = dose: 25.0 mg/kg/injection, schedule: Q04DX003 (ip), vehicle: saline
[6] = dose: 25.0 mg/kg/injection, schedule: Q01DX009 (ip), vehicle: Klucel (hydroxypropylcellulose) (HPC)
[7] = dose: 50.0 mg/kg/injection, schedule: Q01DX009 (ip), vehicle: Klucel (hydroxypropylcellulose) (HPC)
[8] = dose: 100.0 mg/kg/injection, schedule: Q04DX003 (ip), vehicle: Klucel (hydroxypropylcellulose) (HPC)
[9] = dose: 200.0 mg/kg/injection, schedule: Q04DX003 (ip), vehicle: Klucel (hydroxypropylcellulose) (HPC)
[10] = dose: 400.0 mg/kg/injection, schedule: Q04DX003 (ip), vehicle: Klucel (hydroxypropylcellulose) (HPC)
[11] = dose: 50.0 mg/kg/injection, schedule: Q01DX009 (ip), vehicle: other
[12] = dose: 100.0 mg/kg/injection, schedule: Q01DX009 (ip), vehicle: other
[13] = dose: 200.0 mg/kg/injection, schedule: Q01DX009 (ip), vehicle: other

## CCCCNC(C)(C)CO
[1]
  T/C: 100 % of control
[2]
  T/C: 99 % of control
[3]
  T/C: 99 % of control
dose: 12.5 mg/kg/injection, schedule: Q04DX003 (ip), vehicle: saline
  T/C: 102 % of control
[4]
  T/C: 99 % of control
[5]
  T/C: 100 % of control
dose: 50.0 mg/kg/injection, schedule: Q01DX009 (ip), vehicle: saline
  T/C: 86 % of control
dose: 50.0 mg/kg/injection, schedule: Q04DX003 (ip), vehicle: saline
  T/C: 102 % of control
dose: 100.0 mg/kg/injection, schedule: Q01DX009 (ip), vehicle: saline
  T/C: 103 % of control
dose: 100.0 mg/kg/injection, schedule: Q04DX003 (ip), vehicle: saline
  T/C: 95 % of control and 100 % of control

## Clc1ccc2c(c1)N(CCCN1CCCC13CCCCC3)c1ccccc1S2
dose: 1.56 mg/kg/injection, schedule: Q01DX009 (ip), vehicle: saline
  T/C: 87 % of control
dose: 1.56 mg/kg/injection, schedule: Q04DX003 (ip), vehicle: saline with Tween-80
  T/C: 91 % of control
[1]
  T/C: 104 % of control
dose: 3.12 mg/kg/injection, schedule: Q04DX003 (ip), vehicle: saline with Tween-80
  T/C: 91 % of control
[2]
  T/C: 95 % of control
dose: 6.25 mg/kg/injection, schedule: Q04DX003 (ip), vehicle: saline with Tween-80
  T/C: 91 % of control
[3]
  T/C: 95 % of control
dose: 12.5 mg/kg/injection, schedule: Q04DX003 (ip), vehicle: saline with Tween-80
  T/C: 95 % of control

## CNC(=N)c1ccc(NC(=N)c2ccc(NC(=N)c3ccc(NC(=O)Nc4ccc(C(=N)NC)cc4)cc3)cc2)cc1
dose: 1.1 mg/kg/injection, schedule: Q04DX003 (ip), vehicle: saline
  T/C: 122 % of control
dose: 2.4 mg/kg/injection, schedule: Q01DX009 (ip), vehicle: saline
  T/C: 170 % of control
dose: 3.6 mg/kg/injection, schedule: Q01DX009 (ip), vehicle: saline
  T/C: 187 % of control
dose: 5.0 mg/kg/injection, schedule: Q01DX009 (ip), vehicle: saline
  T/C: 154 % of control and 157 % of control
dose: 5.3 mg/kg/injection, schedule: Q01DX009 (ip), vehicle: saline
  T/C: 195 % of control
dose: 5.3 mg/kg/injection, schedule: Q04DX003 (ip), vehicle: saline
  T/C: 154 % of control
[2]
  T/C: 161 % of control
dose: 8.0 mg/kg/injection, schedule: Q01DX009 (ip), vehicle: saline
  T/C: 165 % of control
dose: 12.0 mg/kg/injection, schedule: Q01DX009 (ip), vehicle: saline
  T/C: 188 % of control
dose: 12.0 mg/kg/injection, schedule: Q04DX003 (ip), vehicle: saline
  T/C: 154 % of control
[3]
  T/C: 230 % of control
dose: 18.0 mg/kg/injection, schedule: Q01DX009 (ip), vehicle: saline
  T/C: 230 % of control
dose: 18.0 mg/kg/injection, schedule: Q04DX003 (ip), vehicle: saline
  T/C: 187 % of control
[5]
  T/C: 250 % of control

## N#CC(=C1C=CC(=NO)C=C1)c1ccc(Cl)cc1
[6]
  T/C: 114 % of control
dose: 25.0 mg/kg/injection, schedule: Q04DX003 (ip), vehicle: Klucel (hydroxypropylcellulose) (HPC)
  T/C: 102 % of control
[7]
  T/C: 114 % of control
dose: 50.0 mg/kg/injection, schedule: Q04DX003 (ip), vehicle: Klucel (hydroxypropylcellulose) (HPC)
  T/C: 98 % of control
dose: 100.0 mg/kg/injection, schedule: Q01DX009 (ip), vehicle: Klucel (hydroxypropylcellulose) (HPC)
  T/C: 117 % of control
[8]
  T/C: 110 % of control
[9]
  T/C: 122 % of control
[10]
  T/C: 113 % of control

## O=C(O)CCCCCCc1ccc2ccccc2n1
[11]
  T/C: 105 % of control
[12]
  T/C: 117 % of control
[13]
  T/C: 114 % of control

## CCCCC(=O)NN(Cn1c(=S)sc2ccccc21)Cn1c(=S)sc2ccccc21
dose: 12.5 mg/kg/injection, schedule: Q01DX009 (ip), vehicle: Klucel (hydroxypropylcellulose) (HPC)
  T/C: 109 % of control
[6]
  T/C: 109 % of control
[7]
  T/C: 272 % of control

## c1ccc(C[P+](c2ccccc2)(c2ccccc2)c2ccccc2)cc1
dose: 3.13 mg/kg/injection, schedule: Q01DX009 (ip), vehicle: Klucel (hydroxypropylcellulose) (HPC)
  T/C: 104 % of control
dose: 3.13 mg/kg/injection, schedule: Q04DX003 (ip), vehicle: Klucel (hydroxypropylcellulose) (HPC)
  T/C: 104 % of control
dose: 6.25 mg/kg/injection, schedule: Q01DX009 (ip), vehicle: Klucel (hydroxypropylcellulose) (HPC)
  T/C: 118 % of control
dose: 6.25 mg/kg/injection, schedule: Q04DX003 (ip), vehicle: Klucel (hydroxypropylcellulose) (HPC)
  T/C: 113 % of control
dose: 12.5 mg/kg/injection, schedule: Q04DX003 (ip), vehicle: Klucel (hydroxypropylcellulose) (HPC)
  T/C: 118 % of control

## CCCCCCCCCCCCNC(=O)c1ccc[n+](C)c1
[2]
  T/C: 118 % of control
[3]
  T/C: 109 % of control
[4]
  T/C: 113 % of control

## CC(=O)OC1CC2CCCCC21 (stereo not given)
[11]
  T/C: 116 % of control
[12]
  T/C: 105 % of control
[13]
  T/C: 100 % of control

## CC(C)OC(=O)Oc1cccc2c1C(=O)c1ccccc1C2=O
[8]
  T/C: 104 % of control
[9]
  T/C: 108 % of control
[10]
  T/C: 104 % of control

## NC(=O)c1cc([N+](=O)[O-])c(Cl)c([N+](=O)[O-])c1
dose: 2.5 mg/kg/injection, schedule: Q01DX009 (ip), vehicle: Klucel (hydroxypropylcellulose) (HPC)
  T/C: 109 % of control
dose: 5.0 mg/kg/injection, schedule: Q01DX009 (ip), vehicle: Klucel (hydroxypropylcellulose) (HPC)
  T/C: 109 % of control
dose: 10.0 mg/kg/injection, schedule: Q01DX009 (ip), vehicle: Klucel (hydroxypropylcellulose) (HPC)
  T/C: 104 % of control and 105 % of control
dose: 10.0 mg/kg/injection, schedule: Q04DX003 (ip), vehicle: Klucel (hydroxypropylcellulose) (HPC)
  T/C: 100 % of control
dose: 40.0 mg/kg/injection, schedule: Q04DX003 (ip), vehicle: Klucel (hydroxypropylcellulose) (HPC)
  T/C: 90 % of control

## CCCCCCC[CH2][Sn](=[O])[CH2]CCCCCCC
[1]
  T/C: 120 % of control
[2]
  T/C: 100 % of control
[3]
  T/C: 115 % of control
dose: 22.0 mg/kg/injection, schedule: Q04DX003 (ip), vehicle: other
  T/C: 109 % of control
[6]
  T/C: 86 % of control
dose: 33.0 mg/kg/injection, schedule: Q04DX003 (ip), vehicle: Klucel (hydroxypropylcellulose) (HPC)
  T/C: 100 % of control and 114 % of control
dose: 33.0 mg/kg/injection, schedule: Q04DX003 (ip), vehicle: other
  T/C: 118 % of control
dose: 50.0 mg/kg/injection, schedule: Q04DX003 (ip), vehicle: other
  T/C: 100 % of control
[8]
  T/C: 90 % of control

## O=CN(O)CC(=O)O.[Cu]
dose: 1.16 mg/kg/injection, schedule: Q04DX003 (ip), vehicle: saline
  T/C: 95 % of control
dose: 1.77 mg/kg/injection, schedule: Q04DX003 (ip), vehicle: saline
  T/C: 95 % of control
dose: 2.65 mg/kg/injection, schedule: Q04DX003 (ip), vehicle: saline
  T/C: 90 % of control
dose: 3.9 mg/kg/injection, schedule: Q04DX003 (ip), vehicle: saline
  T/C: 90 % of control
dose: 6.0 mg/kg/injection, schedule: Q04DX003 (ip), vehicle: saline
  T/C: 100 % of control
dose: 9.0 mg/kg/injection, schedule: Q04DX003 (ip), vehicle: saline
  T/C: 113 % of control
dose: 10.0 mg/kg/injection, schedule: Q01DX001 (ip), vehicle: saline
  T/C: 100 % of control
dose: 13.0 mg/kg/injection, schedule: Q04DX003 (ip), vehicle: saline
  T/C: 104 % of control
dose: 20.0 mg/kg/injection, schedule: Q01DX001 (ip), vehicle: saline
  T/C: 118 % of control

## COc1cc2nc(C)n(C)c(=O)c2cc1OC
dose: 50.0 mg/kg/injection, schedule: Q01DX009 (ip), vehicle: saline with Tween-80
  T/C: 101 % of control
dose: 100.0 mg/kg/injection, schedule: Q01DX009 (ip), vehicle: saline with Tween-80
  T/C: 99 % of control
dose: 200.0 mg/kg/injection, schedule: Q01DX009 (ip), vehicle: saline with Tween-80
  T/C: 99 % of control

## Nc1ccc2c(c1)OCO2
dose: 100.0 mg/kg/injection, schedule: Q01DX009 (sc), vehicle: olive oil, sesame oil, peanut oil
  T/C: 104 % of control
dose: 100.0 mg/kg/injection, schedule: Q04DX003 (sc), vehicle: olive oil, sesame oil, peanut oil
  T/C: 91 % of control
dose: 200.0 mg/kg/injection, schedule: Q04DX003 (sc), vehicle: olive oil, sesame oil, peanut oil
  T/C: 95 % of control
dose: 400.0 mg/kg/injection, schedule: Q04DX003 (sc), vehicle: olive oil, sesame oil, peanut oil
  T/C: 116 % of control
